Results taken from patent US11752125B2, “Anti-neuroinflammatory and protective compounds in Achillea fragrantissima” (THE STATE OF ISRAEL MINISTRY OF AGRICULTURE & RURAL …, priority 2013, dated 2023).

What was measured:
[1] = Hydrogen peroxide scavenging activity (A230); details: for H2O2 scavenged: 8 μM compound; for H2O2 scavenged / H2O2 scavenging ability at higher concentrations: 1 mM H2O2, 10 min; for H2O2 scavenging ability at higher concentrations: up to 32 μM compound; for H2O2 scavenging ability: 1 mM H2O2 in PBS, 10 min
Experimental: The scavenging of H2O2 was determined by the method of Ruch et al. Carcinogenesis. 1989 June; 10(6):1003-8, using 1 mM instead of 4 mM H2O2. A 1 mM solution of H2O2 was prepared in PBS and was incubated with different concentrations of TTF, quercetin or memantine. Absorbance (A230) was determined spectrophotometrically 10 min later against blank solutions containing TTF, quercetin or memantine in PBS without H2O2.
(§1) For assessment of H2O2 scavenging activity, 1 mM H2O2 and different concentrations of TTF, quercetin or memantine were co-incubated in PBS. Optical density was measured 10 min later. The results are shown in FIG. 6 and are means±SEM of two experiments performed in duplicates (n=4). **P<0.01, ***P<0.001, compared to H2O2 in the absence of TTF.
as §1, with “[…]” for “assessment”, “achillolide A,” for “TTF,”, “results” for “results are shown in FIG. 6 and”, “compound Results are shown in FIG. 38.” for “TTF.”

astrocytes = experiment: H2O2-induced intracellular ROS levels in astrocytes (DCF-DA); assay type: cell-based, rat; details: for ability to reduce H2O2-induced ROS compared among TTF, quercetin and memantine: concentrations higher than 16 μM, ROS after 1 h, p>0.05
Experimental: Intracellular ROS levels were detected using the non-fluorescent cell permeating compound, 2′7′-dichlorofluorescein diacetate (DCF-DA). DCF-DA is hydrolyzed by intracellular esterases and then oxidized by ROS to a fluorescent compound 2′-7′-DCF. Astrocytes were plated onto 24 wells plates (300,000 cells/well) and treated with DCF-DA (20 μM) for 30 min at 37° C. Following incubation with DCF-DA, cultures were rinsed twice with PBS and then re-suspended in DMEM containing 10% FBS, 8.4 mM HEPES, 2 mM glutamine, 100 U/ml penicillin, and 100 μg/mL streptomycin. ROS levels (fluorescence) at time zero were measured in a plate reader with excitation at 485 nm and emission at 520 nm. Astrocytes were then treated with TTF for 2 h before the addition of H2O2 and ROS levels (fluorescence) were measured in a plate reader with excitation at 485 nm and emission at 520 nm every hour for 4 h.
1. Produce a primary culture of rat brain glial cells according to the method described in “Protective effects of the essential oil of salvia fruticosa and its constituents on astrocytic susceptibility to hydrogen peroxide-induced cell death”. 2009. A. Elmann, S. Mordechay, M. Rindner, O. Larkov, M. Elkabetz, U. Ravid. Journal of agricultural and food chemistry. 57(15):6636-41; 2. Separate astrocytes from other cell types in the culture according to the method described in “Protective effects of the essential oil of salvia fruticosa and its constituents on astrocytic susceptibility to hydrogen peroxide-induced cell death”. 2009. A. Elmann, S. Mordechay, M. Rindner, O. Larkov, M. Elkabetz, U. Ravid. Journal of agricultural and food chemistry. 57(15):6636-41; 3. Plate astrocytes (300,000 cells/0.5 ml/well of 24 wells plate) and incubate (37° C., 5% CO2) for 24 hr as described in: Elmann, A., et al., (2011). Extract of Achillea fragrantissima downregulates ROS production and protects astrocytes from oxidative-stress-induced cell death. In: “Neurodegenerative Diseases—Processes, Prevention, Protection and Monitoring”, ISBN 978-953-307-485-6, (Raymond Chuen-Chung Chang, ed). […] Read fluorescence of “time 0” at 485 nm (Extinction) and 528 nm (Emmision). […] Read fluorescence at 1, 2, 3, 4 hr after the addition of H2O2 (Ex: 485 nm and Em: 528 nm). […]
Astrocytes were pre-loaded with DCF-DA for 30 min and washed. […] ROS levels in astrocytes were measured 1 h and 4 h after the application of H2O2. […] H2O2 was added to the culture and the fluorescence intensity representing ROS levels was measured after 1 h. […]
Preloaded astrocytes were then preincubated for 2 h with various concentrations of achillolide A or memantine. H2O2(175 μM) was added and the fluorescence intensity was measured […]. […]

ERK1/2 = experiment: Aβ25-35-induced ERK1/2 phosphorylation in N2a cells (ELISA); assay type: cell-based; details: concomitant treatment 30-40 min
Experimental: 7. Measure the amount of total and phosphorylated ERK 1/2 in cell lysates of N2a cells, by ELISA using the PathScan total p44/42 MAPK (ERK 1/2) sandwich ELISA kit (Cell Signaling TECHNOLOGY) or the PathScan phosoho-p44/42 MAPK (Thr202/Tyr204) sandwich ELISA kit (Cell Signaling TECHNOLOGY), respectively. 8. Determine the optical density at 450 nm using a microplate reader.
N2a cells were treated concomitantly with Aβ25-35 and TTF for 30 min. Cells were extracted and the levels of phosphorylated or total ERK1/2 were determined by specific ELISA kits. The results are shown in FIG. 14 and are the mean±SEM of two different experiments (n=4).
N2a cells were treated concomitantly with Aβ25-35 and achillolide A for 40 min. Cells were extracted and the levels of phosphorylated or total ERK 1/2 were determined by specific ELISA kits. The results are the mean±SEM of two different experiments (n=4).
N2a cells were treated concomitantly with Aβ25-35 and memantine for 30 min. Cells were extracted and the levels of phosphorylated ERK1/2 were determined by a specific ELISA kit. The results are the mean±SEM of one experiment (n=2).

| SMILES | H2O2 scavenged [1] [%] | H2O2 scavenging ability at higher concentrations [1] [%] | effect on H2O2-induced intracellular ROS levels (astrocytes; 8 μM, H2O2 175 μM, ROS measured 1 h and 4 h after H2O2) | effect on Aβ25-35-induced phosphorylation of ERK1/2 (ERK1/2) | H2O2 scavenging ability [1] | effect on H2O2-induced ROS production (astrocytes; 2 h preincubation, H2O2 175 μM, fluorescence 20 h later) | ability to reduce H2O2-induced ROS compared among TTF, quercetin and memantine (astrocytes; 2 h preincubation) |
| --- | --- | --- | --- | --- | --- | --- | --- |
| COc1cc(-c2oc3cc(OC)c(OC)c(O)c3c(=O)c2O)ccc1O [TTF, 3,5,4′-trihydroxy-6,7,3′-trimethoxyflavone] | 7 | ≤ 7 | inhibited the H2O2-induced elevation of intracellular ROS | significantly inhibited | – | – | – |
| C=C1CCC2=C(CO)C(=O)O[C@H]2/C=C(\C)[C@H](OC(C)=O)CC1=O [achillolide A] | – | – | – | significantly decreased | hydrogen peroxide scavenging ability | attenuates | – |
| CC12CC3CC(C)(C1)CC(N)(C3)C2 [memantine, reference compound] | – | – | – | does not affect | did not have any scavenging ability | – | no significant difference |
| O=c1c(O)c(-c2ccc(O)c(O)c2)oc2cc(O)cc(O)c12 [quercetin, 3,3′,4′,5,7-Pentahydroxyflavone, reference compound] | 57 | 88 | – | – | – | – | no significant difference |
